These results are taken from US8853392B2, “Benzamide mGluR5 positive allosteric modulators and methods of making and using same” (Vanderbilt University, priority 2007, dated 2014).

This assay concerns the target T1, rat mGluR5 (Rattus norvegicus, UniProt P31424).
T1 construct: expressed in transfected cells; host or cells: human embryonic kidney (HEK) cells
The assay is described as follows: potentiation of mGluR5 response to glutamate, Ca2+ fluorescence (FDSS) in HEK cells transfected with rat mGluR5. The class given is cell-based. The conditions noted are these: for pEC50: read-out: EC50. On the procedure:
Human embryonic kidney (HEK) cells transfected with rat mGluR5 were plated in clear bottom assay plates for assay in a Functional Drug Screening System (FDSS). The cells were loaded with a Ca^2+-sensitive fluorescent dye (e.g., Fluo-4), and the plates were washed and placed in the FDSS instrument. After establishment of a fluorescence baseline for twelve seconds, the compounds of the present invention were added to the cells, and the response in cells was measured. Five minutes later, an mGluR5 agonist (e.g., glutamate, 3,5-dihydroxyphenylglycine, or quisqualate) was added to the cells, and the response of the cells was measured. Potentiation of the agonist response of mGluR5 by the compounds in the present invention was observed as an increase in response to non-maximal concentrations of agonist (here, glutamate) in the presence of compound compared to the response to agonist in the absence of compound.
The above described assay operated in two modes. In the first mode, a range of concentrations of the present compounds were added to cells, followed by a single fixed concentration of agonist. If a compound acted as a potentiator, an EC50 value for potentiation and a maximum extent of potentiation by the compound at this concentration of agonist was determined by non-linear curve fitting. In the second mode, several fixed concentrations of the present compounds were added to various wells on a plate, followed by a range of concentrations of agonist for each concentration of present compound; the EC50 values for the agonist at each concentration of compound were determined by non-linear curve fitting. A decrease in the EC50 value of the agonist with increasing concentrations of the present compounds (a leftward shift of the agonist concentration-response curve) is an indication of the degree of mGluR5 potentiation at a given concentration of the present compound. An increase in the EC50 value of the agonist with increasing concentrations of the present compounds (a rightward shift of the agonist concentration-response curve) is an indication of the degree of mGluR5 antagonism at a given concentration of the present compound. The second mode also indicates whether the present compounds also affect the maximum response to mGluR5 to agonists.
Human embryonic kidney (HEK) cells transfected with rat mGluR5 were plated in clear-bottomed, poly-D-lysine-coated assay plates in glutamate-glutamine-free medium growth and incubated overnight at 37° C. in 5% CO2. The following day, cells were loaded with 2 μM calcium indicator dye, fluo-4 AM, for 1 h at 37° C. Dye was removed and replaced with assay buffer containing 1× Hanks balanced salt solution (Invitrogen, Carlsbad, Calif.), 20 mM HEPES, and 2.5 mM probenecid, pH 7.4. Cell plates were then loaded into the Functional Drug Screening System 6000 (FDSS 6000, Hamamatsu, Japan). After establishment of a fluorescence baseline for twelve seconds, the compounds of the present invention were added to the cells, and the response in cells was measured. Five minutes later, an mGluR5 agonist (e.g., glutamate, 3,5-dihydroxyphenylglycine, or quisqualate) was added to the cells, and the response of the cells was measured during a 1 minute incubation with agonists. Typically, the effect of test compounds of the present invention was on an EC20 concentration of glutamate was measured. All test compounds were dissolved and diluted in 100% DMSO and then serially diluted into assay buffer for a 2.5× stock in 0.25% DMSO; stock compounds were then added to the assay for a final DMSO concentration of 0.1%. Calcium fluorescence measures were recorded as fold over basal fluorescence; raw data was then normalized to the maximal response to agonist. Potentiation of the agonist response of mGluR5 by the compounds in the present invention was observed as an increase in response to non-maximal concentrations of agonist (here, glutamate) in the presence of compound compared to the response to agonist in the absence of compound. […]

Where [1] appears, read: HEK293, maximum extent of potentiation, normalized to maximal response to glutamate, SAR tables, read-out: % Glu Max.
The mark [2] stands for this setting: Table 1, EC50 for potentiating the mGluR5 receptor, unit inferred.
The mark [3] stands for this setting: potentiation of glutamate response, HEK cells transfected with rat mGluR5, SAR tables.
Where [4] appears, read: HEK293, read-out: % Glu Max, maximum extent of potentiation, normalized to maximal response to glutamate, SAR tables.

pEC50: −log10 of the molar value. Like-named read-outs stand apart in the source and are kept apart here.

T1 sequence (P31424 21-1203): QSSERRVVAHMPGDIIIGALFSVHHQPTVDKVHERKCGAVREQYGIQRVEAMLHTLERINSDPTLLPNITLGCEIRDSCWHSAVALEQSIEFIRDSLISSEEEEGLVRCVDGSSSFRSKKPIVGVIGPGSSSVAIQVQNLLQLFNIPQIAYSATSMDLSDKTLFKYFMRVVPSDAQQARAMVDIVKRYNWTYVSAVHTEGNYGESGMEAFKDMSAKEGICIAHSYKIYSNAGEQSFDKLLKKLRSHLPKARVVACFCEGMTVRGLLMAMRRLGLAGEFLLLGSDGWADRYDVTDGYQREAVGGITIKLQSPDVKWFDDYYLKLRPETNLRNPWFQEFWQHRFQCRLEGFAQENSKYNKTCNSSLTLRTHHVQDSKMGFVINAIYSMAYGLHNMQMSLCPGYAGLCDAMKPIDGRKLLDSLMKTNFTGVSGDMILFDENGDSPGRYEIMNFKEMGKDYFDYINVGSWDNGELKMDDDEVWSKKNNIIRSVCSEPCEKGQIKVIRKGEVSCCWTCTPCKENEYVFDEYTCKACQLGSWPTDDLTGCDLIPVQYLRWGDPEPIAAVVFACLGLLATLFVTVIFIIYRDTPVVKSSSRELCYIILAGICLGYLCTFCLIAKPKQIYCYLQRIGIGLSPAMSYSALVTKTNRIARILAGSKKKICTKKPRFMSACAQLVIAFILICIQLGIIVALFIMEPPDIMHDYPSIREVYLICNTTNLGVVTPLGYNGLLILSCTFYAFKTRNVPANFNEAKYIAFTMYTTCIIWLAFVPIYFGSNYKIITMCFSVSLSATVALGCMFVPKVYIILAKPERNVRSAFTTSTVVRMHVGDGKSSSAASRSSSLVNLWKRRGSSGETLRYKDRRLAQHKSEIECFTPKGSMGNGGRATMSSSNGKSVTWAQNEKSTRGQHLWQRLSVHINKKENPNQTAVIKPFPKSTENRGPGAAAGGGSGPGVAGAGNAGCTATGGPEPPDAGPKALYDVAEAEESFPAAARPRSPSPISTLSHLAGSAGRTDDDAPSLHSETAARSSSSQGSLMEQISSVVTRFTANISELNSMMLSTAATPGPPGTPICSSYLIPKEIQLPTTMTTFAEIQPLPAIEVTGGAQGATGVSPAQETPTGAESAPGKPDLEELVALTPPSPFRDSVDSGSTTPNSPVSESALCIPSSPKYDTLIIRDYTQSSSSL

Broadly, the pEC50 is the EC50 on a negative log10 scale, so that one unit is a factor of ten. Consider `O=C(c1ccc(C#Cc2ccc(F)c(F)c2)cc1)N1CC(O)C1` [Compound 20p, (4-((3,4-difluorophenyl)ethynyl)phenyl)(3-hydroxyazetidin-1-yl)methanone], for which the Emax under setting [1] was determined as 88%. Also, the pEC50 under setting [2] was 6.41 and the pEC50 under setting [3] is 6.50.

With `COCCNC1CCN(C(=O)c2ccc(C#Cc3ccccc3)cc2)CC1` [(4-(2-methoxyethylamino)piperidin-1-yl)(4-(phenylethynyl)phenyl)methanone], the pEC50 under setting [2] was 5.92. With `O=C(NCC1CCCCC1)c1ccc(C#Cc2ccccc2)cc1` [N-(cyclohexylmethyl)-4-(phenylethynyl)benzamide], the pEC50 under setting [2] was 7.16.

As to `O=C(c1ccc(C#Cc2ccccc2)cc1)N1CCC(O)(c2cccc(F)c2)CC1` [Compound 7f], the Emax under setting [4] came to 92%. In addition, the pEC50 under setting [3] was 5.80. In the case of `CCCC1(O)CN(C(=O)c2ccc(C#Cc3ccccc3)cc2)C1` [Compound 9c, (3-hydroxy-3-propylazetidin-1-yl)(4-(phenylethynyl)phenyl)methanone], under setting [1], the Emax was determined as 59.8%. The negative logarithm of the EC50 (pEC50) reads like this: under setting [2], 6.30; under setting [3], 6.37. Take `O=C(c1ccc(C#Cc2cccc(F)c2)cc1)N1CCC(O)CC1` [Compound 19b, (4-((3-fluorophenyl)ethynyl)phenyl)(4-hydroxypiperidin-1-yl)methanone]: the Emax under setting [1] was 77%. The negative logarithm of the EC50 (pEC50) was 8.49 under setting [2] and 8.49 under setting [3]. For `O=C(NC1Cc2ccccc2C1)c1ccc(C#Cc2ccccc2)cc1` [N-(2,3-dihydro-1H-inden-2-yl)-4-(phenylethynyl)benzamide], the pEC50 under setting [2] was 6.80.

On to `O=C(c1ccc(C#Cc2ccccc2)cc1)N1CCC(O)(c2ccc(F)cc2)CC1` [drawing 155, (4-(4-fluorophenyl)-4-hydroxypiperidin-1-yl)(4-(phenylethynyl)phenyl)methanone], for which the negative logarithm of the EC50 (pEC50) under setting [2] was 5.90. `CC1(O)CCN(C(=O)c2ccc(C#Cc3ccccc3F)cc2)CC1` [Compound 20a, (4-((2-fluorophenyl)ethynyl)phenyl)(4-hydroxy-4-methylpiperidin-1-yl)methanone]: under setting [1], the Emax is 86%. Moreover, the negative logarithm of the EC50 (pEC50) under setting [2] is 7.42 and the pEC50 under setting [3] was 7.46. On to `O=C(c1ccc(C#Cc2ccccc2)cc1)N1CCCC(O)C1` (stereo not drawn) [(3-hydroxypiperidin-1-yl)(4-(phenylethynyl)phenyl)methanone], for which the pEC50 under setting [2] was 6.87. On the same count and under the same terms, the value for `O=C(NCCc1ccccc1Cl)c1ccc(C#Cc2ccccc2)cc1` [N-(2-chlorophenethyl)-4-(phenylethynyl)benzamide] was 6.87. As for `O=C(c1ccc(C#Cc2ccc(F)cc2)cc1)N1CC(O)C1` [Compound 20o, (4-((4-fluorophenyl)ethynyl)phenyl)(3-hydroxyazetidin-1-yl)methanone], under setting [1], the Emax amounted to 103%. Also, the negative logarithm of the EC50 (pEC50) by setting is: under setting [2], 6.79; under setting [3], 6.81. On to `Cc1ccc(C#Cc2ccc(C(=O)N3CCC(O)CC3)cc2)cc1` [Compound 19h], for which the “EC50 (nM)” value under setting [3] was “inactive”. On to `COc1ccc(C2(O)CCN(C(=O)c3ccc(C#Cc4ccccc4)cc3)CC2)cc1` [Compound 7g], for which the Emax under setting [4] came to 91%. In addition, the negative-log EC50 (pEC50) under setting [3] was 5.61. For `O=C(c1ccc(C#Cc2ccccc2)cc1)N1CCC(NC2CCCCC2)CC1` [(4-(cyclohexylamino)piperidin-1-yl)(4-(phenylethynyl)phenyl)methanone], the negative logarithm of the EC50 (pEC50) under setting [2] was 7.11. `O=C(c1ccc(C#Cc2cccc(C(F)(F)F)c2)cc1)N1CCC(O)CC1` [Compound 19i, (4-hydroxypiperidin-1-yl)(4-((3-(trifluoromethyl)phenyl)ethynyl)phenyl)methanone]: the Emax under setting [1] amounted to 68%. In addition, the pEC50 under setting [2] is 5.66 and the negative logarithm of the EC50 (pEC50) under setting [3] is 5.69. Take `O=C(c1ccc(C#Cc2cccc(F)c2)cc1)N1CCC(CO)CC1` [Compound 20f, (4-((3-fluorophenyl)ethynyl)phenyl)(4-(hydroxymethyl)piperidin-1-yl)methanone]: the Emax under setting [1] amounted to 86%. Further, the pEC50 was 7.92 under setting [2] and 7.92 under setting [3].
